Assay results reported in patent US20220112194A1, “COMPOUNDS TARGETING PRMT5” (ALIGOS THERAPEUTICS, INC., priority 2020, published 2022).
pEC50, pIC50: −log10 of the molar value.

Assays:
[1] = system: A549 lung carcinoma cells; test: Cell proliferation assay A549 (CellTiter-Glo, 7 days); format: cell-based; conditions: Homo sapiens, A549, 168 h, A549, 7 days, cell viability CellTiter-Glo 2.0
Protocol: (§1) HepG2 hepatoma cells (ATCC, HB-8065) were maintained in DMEM with high glucose (Lonza, 12-914F) supplemented with 10% fetal bovine serum (FBS; Biowest, S181B-500) and 2 mM L-glutamine (Biowest, X0551-100) at 37° C. and 5% CO2. A549 lung carcinoma cells (ATCC, CCL-185) were maintained in F-12K medium (ThermoFisher 21127030) supplemented with 10% FBS at 37° C. and 5% CO2. Exponentially growing HepG2 or A549 were plated in white, clear-bottom 96-well plates (Corning, 3903) at a cell density of 2000 (HepG2) or 350 (A549) cells per well in 199 μL of HepG2 medium. Next, 1 μL of a 5-fold 9-point dilution series of test compound in DMSO was added to the different wells. Cells were incubated at 37° C. 5% CO2 for 7 days. Cell viability was assessed on day 7 with the CellTiter-Glo 2.0 Cell Viability assay kit (Promega, G9243) to quantify the intracellular amounts of ATP: first, 100 μL of cell culture medium was removed from each well, next 100 μL of CellTiter-Glo® 2.0 Reagent was added and plates were shaken for 2 minutes on an orbital shaker. After 10 minutes stabilization at room temperature, read-out was performed on a ThermoFisher VarioSkan Lux plate reader. Counts were normalized to DMSO control (0% inhibition) and the cytotoxic control (100% inhibition) and EC50 values were determined in GraphPad Prism 8 using the [Agonist] vs. response—Variable slope (four parameters) function.
(§2) As shown by the data of Table 2, compounds of Formula (I) have activity in this assay. A value of ‘A’ in the table below indicates an EC50 of <20 nM, a value of ‘B’ indicates an EC50≥20 nM to <100 nM, a value of ‘C’ indicates an EC50 value of EC50≥100 nM to <1000 nM and a value of ‘D’ indicates an EC50≥1000 nM

HepG2 hepatoma cells = test: Cell proliferation assay HepG2 (CellTiter-Glo, 7 days); format: cell-based; conditions: Homo sapiens, 168 h; HepG2, 7 days, cell viability CellTiter-Glo 2.0
Protocol: as §1, §2

PRMT5/MEP50 [2] = molecular target: T1, PRMT5/MEP50 (Homo sapiens, UniProt O14744); test: PRMT5/MEP50 enzyme inhibition assay, Assay 2 (384-well, MALDI mass spectrometry, SAM, histone H4 1-21 peptide); format: biochemical; conditions: 1 μM SAM, 0.1 μM histone H4 1-21 peptide, 18-hour incubation at rt
Protocol: Compounds were tested for inhibition of methyltransferase activity in 384-well plate assay format using mass spectrometry technology. In this enzyme inhibition assay, compounds were tested in a 11-dose IC50 mode with 3-serial dilution, in duplicate, starting at 1, 10, or 100 μM. Reactions were carried out at 1 μM SAM and 0.1 μM histone H4 1-21 peptide as substrates for methyl transfer. Following an 18-hour incubation at rt, the reaction was stopped with 0.5% formic acid. Products of the reaction were captured while unreacted substrates were washed away, prior to MALDI mass spectrometry detection and analysis. Percent enzyme activity was calculated based on no inhibitor DMSO control as 100% activity. EC50 values were determined in GraphPad Prism 8 using the [inhibitor] vs. response—Variable slope (four parameters) function.
(§3) Compounds of Formula (I) show activity in this assay. A value of ‘A’ in the table below indicates an IC50 of <1 nM, a value of ‘B’ indicates an IC50≥1 nM to ≤100 nM, and a value of ‘C’ indicates an IC50 value of >100 nM.

PRMT5/MEP50 [3] = molecular target: T1, PRMT5/MEP50; test: PRMT5/MEP50 enzyme inhibition assay, Assay 1 (radioisotope filter binding, 3H-SAM, histone H2A); format: biochemical; conditions: 1 μM 3H-SAM, 5 μM histone H2A, 60 min at 30° C.
Protocol: Compounds were tested for inhibition of methyltransferase activity in a radioisotope filter binding assay, similar to previously described in A selective inhibitor of PRMT5 with in vivo and in vitro potency in MCL models. Chan-Penebre et al., Nat Chem Biol. (2015) 11(6):432-7. In the standard PRMT5/MEP50 enzyme inhibition assay, compounds were tested in a 10-dose IC50 mode with 3- or 5-fold serial dilution, in singlet, starting at 1, 10, or 100 μM. Control compound, SAH (S-(5′-Adenosyl)-L-homocysteine), was tested in 10-dose IC50 mode with 3-fold serial dilution starting at 100 μM. Reactions were carried out at 1 μM 3H-SAM (PerkinElmer) and 5 μM histone H2A as substrates for methyl transfer. Following a 60 min incubation at 30° C., the reaction was stopped with 20% TCA. Each reaction was spotted on a filter plate (MultiScreen FB Filter plate, Millipore) and washed 5 times in PBS, after which scintillation fluid was added and signal was detected in a scintillation counter. Percent enzyme activity was calculated based on no inhibitor DMSO control as 100% activity. EC50 values were determined in GraphPad Prism 8 using the [inhibitor] vs. response—Variable slope (four parameters) function.
as §3

T1 sequence (O14744 whole entry): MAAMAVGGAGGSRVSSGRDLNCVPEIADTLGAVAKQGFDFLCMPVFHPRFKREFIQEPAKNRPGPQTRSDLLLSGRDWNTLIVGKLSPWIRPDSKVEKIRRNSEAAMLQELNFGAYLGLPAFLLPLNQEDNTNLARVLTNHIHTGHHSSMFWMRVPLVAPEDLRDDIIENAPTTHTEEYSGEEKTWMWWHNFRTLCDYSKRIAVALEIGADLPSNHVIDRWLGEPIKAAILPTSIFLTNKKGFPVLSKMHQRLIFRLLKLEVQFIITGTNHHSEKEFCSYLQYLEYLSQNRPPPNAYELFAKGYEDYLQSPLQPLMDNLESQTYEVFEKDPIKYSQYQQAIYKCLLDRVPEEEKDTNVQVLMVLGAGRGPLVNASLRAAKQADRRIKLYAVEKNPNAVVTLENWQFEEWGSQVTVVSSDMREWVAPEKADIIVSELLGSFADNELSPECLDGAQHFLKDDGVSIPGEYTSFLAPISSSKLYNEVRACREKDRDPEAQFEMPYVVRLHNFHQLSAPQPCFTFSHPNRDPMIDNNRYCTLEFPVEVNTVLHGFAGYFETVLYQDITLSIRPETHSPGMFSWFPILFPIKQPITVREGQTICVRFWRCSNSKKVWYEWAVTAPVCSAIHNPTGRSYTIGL
T1 sequence (Q9BQA1 whole entry partner): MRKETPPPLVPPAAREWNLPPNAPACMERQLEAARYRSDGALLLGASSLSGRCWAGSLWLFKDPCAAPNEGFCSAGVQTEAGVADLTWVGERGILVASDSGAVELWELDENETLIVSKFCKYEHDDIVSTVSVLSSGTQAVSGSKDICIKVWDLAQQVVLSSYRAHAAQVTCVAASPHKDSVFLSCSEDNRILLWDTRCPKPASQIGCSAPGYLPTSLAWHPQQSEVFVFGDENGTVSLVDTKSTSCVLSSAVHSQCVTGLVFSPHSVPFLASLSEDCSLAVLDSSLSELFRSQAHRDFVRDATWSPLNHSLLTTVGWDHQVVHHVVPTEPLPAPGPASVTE

SMILES	pEC50 [1]	pEC50 (HepG2 hepatoma cells)	pIC50 (PRMT5/MEP50 [2])	pIC50 (PRMT5/MEP50 [3])
C[C@]1(CCc2ccc3cc(C#N)c(N)nc3c2)C[C@@H](n2ccc3c(N)ncnc32)[C@H](O)[C@@H]1O [Compound 27]	7.00 to 7.70	7.00 to 7.70	> 9.00	–
C=C1[C@@H](n2ccc3c(N)ncnc32)[C@H](O)[C@H](O)[C@H]1CCc1ccc2cc(Br)c(Cl)nc2c1 [Compound 3]	6.00 to 7.00	6.00 to 7.00	< 7.00	< 7.00
CC(C)C(=O)O[C@H]1[C@H](n2ccc3c(N)ncnc32)C[C@](C)(CCc2ccc3nc(N)ccc3c2)[C@H]1OC(=O)C(C)C [Compound 26-A]	≤ 6.00	≤ 6.00	< 7.00	–
C[C@H]1[C@H](CCc2ccc3ccc(N)nc3c2)[C@@H](O)[C@@H](O)[C@@H]1n1ccc2c(N)ncnc21 [Compound 5]	6.00 to 7.00	6.00 to 7.00	> 9.00	> 9.00
COC[C@]1(CCc2ccc3cc(Br)c(N)nc3c2)C[C@@H](n2ccc3c(N)ncnc32)[C@H](O)[C@@H]1O [Compound 58]	> 7.70	> 7.70	–	–
C=C1[C@@H](n2ccc3c(N)ncnc32)[C@H](O)[C@H](O)[C@H]1CCc1ccc2cc(Br)c(N)nc2c1 [Compound 4]	> 7.70	> 7.70	> 9.00	> 9.00
C[C@@H]1[C@H](CCc2ccc3ccc(N)nc3c2)[C@@H](O)[C@@H](O)[C@@H]1n1ccc2c(N)ncnc21 [Compound 6]	≤ 6.00	≤ 6.00	7.00 to 9.00	7.00 to 9.00
C[C@]1(CCc2cc(F)c3cc(Cl)c(N)nc3c2)C[C@@H](n2ccc3c(N)ncc(F)c32)[C@H](O)[C@@H]1O [Compound 34, (1S,2R,3S,5R)-3-[2-(2-amino-3-chloro-5-fluoro-7-quinolyl)ethyl]-5-(4-amino-7-fluoro-pyrrolo[3,2-c]pyridin-1-yl)-3-methyl-cyclopentane-1,2-diol]	–	–	> 9.00	–
C[C@]1(CCc2ccc3cc(Cl)c(N)nc3c2)C[C@@H](n2ccc3c(N)ncnc32)[C@H](O)[C@@H]1O [Compound 18]	> 7.70	> 7.70	> 9.00	–
Cc1cnc2cc(OC[C@@]34C[C@@H]3[C@@H](n3ccc5c(N)ncnc53)[C@H](O)[C@@H]4O)ccn12 [Compound 16]	≤ 6.00	≤ 6.00	> 9.00	–
Nc1nc2cc(CC[C@@]34C[C@@H]3[C@@H](n3ccc5c(N)ncnc53)[C@H](O)[C@@H]4O)ccc2cc1Br [Compound 2]	> 7.70	> 7.70	> 9.00	> 9.00
C[C@]1(CCc2cc(F)c3ccc(N)nc3c2)C[C@@H](n2ccc3c(N)ncc(F)c32)[C@H](O)[C@@H]1O [Compound 42, (1S,2R,3S,5R)-3-(2-(2-amino-5-fluoroquinolin-7-yl)ethyl)-5-(4-amino-7-fluoro-1H-pyrrolo[3,2-c]pyridin-1-yl)-3-methylcyclopentane-1,2-diol]	–	–	> 9.00	–
COC[C@]1(CCc2cc(F)c3cc(Cl)c(N)nc3c2)C[C@@H](c2ccc3c(N)ncnn23)[C@H](O)[C@@H]1O [Compound 64]	> 7.70	–	–	–
C[C@]1(CCc2ccc3cc(Br)c(N)nc3c2)C[C@@H](n2ccc3c(N)ncc(F)c32)[C@H](O)[C@@H]1O [Compound 50]	> 7.70	> 7.70	> 9.00	–
C[C@]1(CCc2cc(F)c3cc(Cl)c(N)nc3c2)C[C@@H](n2ccc3c(N)nc(Cl)nc32)[C@H](O)[C@@H]1O [Compound 53]	> 7.70	> 7.70	> 9.00	–
C=C[C@]1(CCc2ccc3cc(Br)c(N)nc3c2)C[C@@H](n2ccc3c(N)ncnc32)[C@H](O)[C@@H]1O [Compound 62]	> 7.70	–	–	–
C[C@]1(CCc2ccc3ccc(N)nc3n2)C[C@@H](n2ccc3c(N)ncnc32)[C@H](O)[C@@H]1O [Compound 24]	7.00 to 7.70	7.00 to 7.70	> 9.00	–
Nc1nc2cc(OC[C@@H]3[C@@H](O)[C@@H](O)[C@]4(n5ccc6c(N)ncnc65)C[C@@H]34)ccc2cc1Br (racemic) [Compound 17, rac-(2S,3R,4R,5S)-4-[(2-amino-3-bromo-7-quinolyl)oxymethyl]-1-(4-aminopyrrolo[2,3-d]pyrimidin-7-yl)bicyclo[3.1.0]hexane-2,3-diol]	≤ 6.00	≤ 6.00	–	–
C[C@]1(CCc2cc(F)c3cc(Cl)c(N)nc3c2)C[C@@H](c2ccc3c(N)ncnn23)[C@H](O)[C@@H]1O [Compound 57]	> 7.70	> 7.70	–	–
C#C[C@]1(CCc2ccc3cc(Br)c(N)nc3c2)C[C@@H](n2ccc3c(N)ncnc32)[C@H](O)[C@@H]1O [Compound 63]	> 7.70	–	–	–
C[C@]1(CCc2ccc3cc(Br)c(N)nc3c2)C[C@@H](n2ccc3c(N)ncnc32)[C@H](O)[C@@H]1O [Compound 1]	–	–	> 9.00	> 9.00
Nc1ccc2ccc(CC[C@@]3(F)C[C@@H](n4ccc5c(N)ncnc54)[C@H](O)[C@@H]3O)cc2n1 [Compound 35, (1S,2S,3R,5R)-5-(4-amino-7H-pyrrolo[2,3-d]pyrimidin-7-yl)-3-(2-(2-aminoquinolin-7-yl)ethyl)-3-fluorocyclopentane-1,2-diol]	–	–	> 9.00	–
CCCCCOC(=O)Nc1ccc2ccc(CC[C@@]3(C)C[C@@H](c4ccc5c(N)ncnn45)[C@H](O)[C@@H]3O)cc2n1 [Compound 55]	7.00 to 7.70	7.00 to 7.70	< 7.00	–
C[C@]1(CCc2ccc3cc(Br)c(N)nc3c2)C[C@@H](c2ccc3c(N)ncnn23)[C@H](O)[C@@H]1O [Compound 59]	> 7.70	> 7.70	> 9.00	–
C[C@]1(CCc2ccc3cc(Cl)c(N)nc3c2)C[C@@H](n2ccc3c(N)ncnc32)[C@H](O)[C@]1(C)O [Compound 28]	6.00 to 7.00	7.00 to 7.70	> 9.00	–
C[C@]1(CCc2ccc3cc(C(F)F)c(N)nc3c2)C[C@@H](n2ccc3c(N)ncnc32)[C@H](O)[C@@H]1O [Compound 23]	> 7.70	> 7.70	> 9.00	–
Cn1c(N)nc2cc(CC[C@@]3(C)C[C@@H](n4ccc5c(N)ncnc54)[C@H](O)[C@@H]3O)ccc2c1=O [Compound 29]	7.00 to 7.70	> 7.70	> 9.00	–
